Where two headings read alike, the source gives them in different places.
Assays:
H2228 Cells = experiment: MTT cell viability assay, combinations (Chou-Talalay method); format: cell-based; conditions: Homo sapiens, NCI-H2228
Method: (§1) The combinations comprising the compound of formula (1) were tested using an MTT proliferation assay in a panel of tumor cell lines of different origins. All culture materials were obtained from the sources described in Example 2. In the Chou-Talalay method, which is the standard, universally known methodology to determine drug interactions, the two drugs under study are maintained at a fixed ratio of IC50 single agent (drug 1):IC50 single agent (drug 2) while the concentration of total amount of drugs in the combination is varied and the 20% (IC20), 50% (IC50) and 80% (IC80) of growth inhibition of the combination is determined.
(§2) In the activity assays on cell lines the following terms are used: • IC50: Drug concentration at which 50% growth inhibition is achieved. • TKI IC50: The IC50 of the tyrosine kinase inhibitor as single agent. • Compound (1) IC50: The IC50 of compound (1) as single agent. • CI@IC20: The combination index of the combination consisting of drug 1 and drug 2 at a weight ratio equal to IC50 of drug 1:IC50 of drug 2 wherein said combination is used at a total amount that achieves 20% of growth inhibition. • CI@IC50: The combination index of the combination consisting of drug 1 and drug 2 at a weight ratio equal to IC50 of drug 1:IC50 of drug 2, wherein said combination is used at a total amount that achieves 50% of growth inhibition. • CI@IC80: The combination index of the combination consisting of drug 1 and drug 2 at a weight ratio equal to IC50 of drug 1:IC50 of drug 2, wherein said combination is used at a total amount that achieves 80% of growth inhibition. • Combination TKI IC50: The combination index at a tyrosine kinase inhibitor concentration that corresponds to the IC50 (single agent). • The combination index (CI) concept was introduced by Chou T.C. and Talalay P.(Chou TC, Talalay P. Adv Enzyme Regul 1984;22:27-55). The derived combination index equation for two drugs is (D = dosage or concentration): CI = ((D)1)/((Dx)1) + ((D)2)/((Dx)2) [formula] where (Dx)1 is the concentration of drug 1 "alone" that inhibits growth at a x% (i.e. (D50)1 is the concentration of drug 1 "alone" that inhibits growth at a 50%), (Dx)2 is the concentration of drug 2 "alone" that inhibits growth at a x%, (D)1 and (D)2 refer to the concentration of drug 1 and drug 2, respectively, in the combination, wherein the combination inhibits growth at the same x%. The CI Value quantitatively defines synergism (CI<1) (in particular, CI values of CI<0.7 indicates strong synergism, 0.7<CI<0.85 indicates moderate synergism, 0.85<CI<1 indicates slight synergism), additive effect (CI=1) and antagonism (CI>1). Based on the above equation, a plot of CI values at different effect levels (fa's) can be determined. Entering a series of "dose" ((D1), (D2), ((Dx)1 and (Dx)2) and % of growth inhibition (%x or effect (fa))" into an excel sheet for each drug alone and their combinations, the CI values at different x% (or fa levels) are obtained using the above equation. This plot is also called the Fa-CI plot or the Chou-Talalay plot.
(§3) Cell viability in response to combination treatment was assessed by the Thiazolyl Blue Tetrazolium Bromide (MTT) (Sigma, St Louis, MO) assay. Cells from each cell line were seeded at 2000 to 10000 per well in 96-well plates. […] Twenty-four hours after seeding, cells were exposed to compound (1), commercial drug or combinations thereof for 72 h. In the Chou-Talalay method, which is the standard, universally known methodology to determine drug interactions, the two drugs under study are maintained at a fixed ratio IC50 single agent (drug 1):IC50 single agent (drug 2).
(§4) After treatment, cells were incubated with medium containing MTT (0.75 mg/mL in medium) for 1-2 h at 37°C. Culture medium with MTT was removed and formazan crystals reabsorbed in 100 µL DMSO (Sigma, St. Louis, MO). Cell viability was determined by measuring the absorbance at 492 nm, using a microplate reader (BioWhittaker, Walkersville, MD).

HCC78 cells = experiment: as above; format: cell-based; conditions: Homo sapiens
Method: as §1, §2, §3, §4

H3122 Cells = experiment: as above; format: cell-based; conditions: Homo sapiens
Method: as §1, §2, §3, §4

[1] = test system: mantle cell lymphoma (MCL) cell lines; conditions: Eur. J. Med. Chem., 2014, 86, 664-675; cited from earlier work
UACC903 = experiment: MTT proliferation assay, single agent; format: cell-based; conditions: Homo sapiens, UACC-903, Melanoma, BRAF V600E, 72 h, mean of several independent experiments

IC50 (H2228 Cells; H2228 cells, compound (1) as single agent, 72 h, read-out: Compound (1) IC50): 809 nM
IC50 (H2228 Cells; read-out: Combination Compound (1) IC50): 410 nM
IC50 (HCC78 cells; HCC78, 72 h, HCC78 cells, compound (1) as single agent, 72 h, read-out: Compound (1) IC50): 800 nM
IC50 (HCC78 cells; HCC78, HCC78 cells, compound (1) in combination with Crizotinib, read-out: Combination Compound (1) IC50): 430 nM
IC50 (HCC78 cells; HCC78, HCC78 cells, compound (1) in combination with Foretinib, read-out: Combination Compound (1) IC50): 210 nM
IC50 (H3122 Cells; NCI-H3122, 72 h, H3122 cells, compound (1) as single agent, 72 h, read-out: Compound (1) IC50): 1300 nM
IC50 (H3122 Cells; NCI-H3122, H3122 cells, compound (1) in combination with Alectinib, read-out: Combination Compound (1) IC50): 240 nM
IC50 (H3122 Cells; NCI-H3122, H3122 cells, compound (1) in combination with Crizotinib, read-out: Combination Compound (1) IC50): 500 nM
Structure (SMILES): Cn1c(=O)c(-c2c(Cl)cccc2Cl)cc2c(N)nc(Nc3ccccc3)nc21 [Compound (1), 4-amino-6-(2,6-dichlorophenyl)-8-methyl-2-(phenylamino)-pyrido[2,3-d]pyrimidin-7(8H)-one]
cytostatic activity [1]: good cytostatic activity
IC50 (UACC903): 3350 nM
